In patent US8426602B2, “Heteroaryl-substituted dicyanopyridines and their use” (Bayer Intellectual Property GmbH, priority 2008, dated 2013) one finds EC50 data, which are given here for 13 compounds.

Common to all, as to format: cell-based
In one test the target is T1, adenosine A2b receptor (Homo sapiens, UniProt P29275).
T1 construct: expressed in transfected cells; host or cells: CHO (Chinese Hamster Ovary)
T1 sequence (P29275 1-332): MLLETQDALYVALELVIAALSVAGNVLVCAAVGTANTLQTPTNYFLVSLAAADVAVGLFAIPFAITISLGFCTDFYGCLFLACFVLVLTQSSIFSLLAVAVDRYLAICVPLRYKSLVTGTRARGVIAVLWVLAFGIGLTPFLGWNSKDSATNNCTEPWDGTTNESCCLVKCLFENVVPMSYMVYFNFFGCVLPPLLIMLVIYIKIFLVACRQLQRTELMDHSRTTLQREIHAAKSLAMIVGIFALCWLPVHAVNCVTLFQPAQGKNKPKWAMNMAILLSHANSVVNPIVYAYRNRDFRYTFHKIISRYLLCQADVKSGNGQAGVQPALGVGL
Description: Indirect determination of adenosine agonism by way of gene expression (luciferase), A2b cells. The conditions noted are these: stably transfected CHO cells; 50% of maximum stimulation of luciferase. From the text: (§1) B-1. Indirect Determination of the Adenosine Agonism by Way of Gene Expression
(§2) Cells of the CHO (Chinese Hamster Ovary) permanent line are transfected stably with the cDNA for the adenosine receptor subtypes A1, A2a and A2b. The adenosine A1 receptors are coupled to the adenylate cyclase by way of Gi proteins, while the adenosine A2a and A2b receptors are coupled by way of Gs proteins. In correspondence with this, the formation of cAMP in the cell is inhibited or stimulated, respectively. After that, expression of the luciferase is modulated by way of a cAMP-dependent promoter. The luciferase test is optimized, with the aim of high sensitivity and reproducibility, low variance and good suitability for implementation on a robot system, by varying several test parameters, such as cell density, duration of the growth phase and the test incubation, forskolin concentration and medium composition. The following test protocol is used for pharmacologically characterizing cells and for the robot-assisted substance screening:
(§3) The stock cultures are grown, at 37° C. and under 5% CO2, in DMEM/F12 medium containing 10% FCS (fetal calf serum) and in each case split 1:10 after 2-3 days. Test cultures are seeded in 384-well plates with 2000 cells per well and grown at 37° C. for approx. 48 hours. The medium is then replaced with a physiological sodium chloride solution (130 mM sodium chloride, 5 mM potassium chloride, 2 mM calcium chloride, 20 mM HEPES, 1 mM magnesium chloride hexahydrate, 5 mM sodium bicarbonate, pH 7.4). The substances to be tested, which are dissolved in DMSO, are pipetted into the test cultures (maximum final concentration of DMSO in the test mixture: 0.5%) in a dilution series of from 5×10^−11 M to 3×10^−6 M (final concentration). 10 minutes later, forskolin is added to the A1 cells and all the cultures are subsequently incubated at 37° C. for four hours. After that, 35 μl of a solution which is composed of 50% lysis reagent (30 mM disodium hydrogenphosphate, 10% glycerol, 3% TritonX100, 25 mM TrisHCl, 2 mM dithiotreitol (DTT), pH 7.8) and 50% luciferase substrate solution (2.5 mM ATP, 0.5 mM luciferin, 0.1 mM coenzyme A, 10 mM tricine, 1.35 mM magnesium sulfate, 15 mM DTT, pH 7.8) are added to the test cultures, which are shaken for approx. 1 minute and the luciferase activity is measured using a camera system. The EC50 values are determined, i.e., the concentrations at which 50% of the luciferase response is inhibited in the case of the A1 cell, and, respectively, 50% of the maximum stimulation with the corresponding substance is achieved in the case of the A2b and A2a cells. […] Pharmacol., 357, 1-9 (1998)).

In the next test the target is T2, adenosine A2a receptor (Homo sapiens, UniProt P29274).
T2 construct: expressed in transfected cells; host or cells: CHO (Chinese Hamster Ovary)
Description: Indirect determination of adenosine agonism by way of gene expression (luciferase), A2a cells. The conditions noted are these: stably transfected CHO cells; 50% of maximum stimulation of luciferase.
Source text: as §1, §2, §3

Another test has as its target T3, adenosine A1 receptor (Homo sapiens, UniProt P30542).
T3 construct: expressed in transfected cells; host or cells: CHO (Chinese Hamster Ovary)
T3 sequence (P30542 1-326): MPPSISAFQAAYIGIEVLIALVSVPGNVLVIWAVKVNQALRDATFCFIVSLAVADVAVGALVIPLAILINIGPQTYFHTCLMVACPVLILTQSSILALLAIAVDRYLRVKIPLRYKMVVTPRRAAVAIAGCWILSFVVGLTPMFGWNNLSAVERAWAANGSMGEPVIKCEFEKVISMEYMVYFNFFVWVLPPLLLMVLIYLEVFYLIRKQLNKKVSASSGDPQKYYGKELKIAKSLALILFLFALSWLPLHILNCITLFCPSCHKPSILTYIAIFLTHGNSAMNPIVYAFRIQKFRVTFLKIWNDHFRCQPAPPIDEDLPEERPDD
Kind of test: Indirect determination of adenosine agonism by way of gene expression (luciferase), A1 cells. The conditions noted are these: stably transfected CHO cells; 1 μM forskolin; 50% inhibition of luciferase response.
Source text: as §1, §2, §3

T2 sequence (P29274 whole entry): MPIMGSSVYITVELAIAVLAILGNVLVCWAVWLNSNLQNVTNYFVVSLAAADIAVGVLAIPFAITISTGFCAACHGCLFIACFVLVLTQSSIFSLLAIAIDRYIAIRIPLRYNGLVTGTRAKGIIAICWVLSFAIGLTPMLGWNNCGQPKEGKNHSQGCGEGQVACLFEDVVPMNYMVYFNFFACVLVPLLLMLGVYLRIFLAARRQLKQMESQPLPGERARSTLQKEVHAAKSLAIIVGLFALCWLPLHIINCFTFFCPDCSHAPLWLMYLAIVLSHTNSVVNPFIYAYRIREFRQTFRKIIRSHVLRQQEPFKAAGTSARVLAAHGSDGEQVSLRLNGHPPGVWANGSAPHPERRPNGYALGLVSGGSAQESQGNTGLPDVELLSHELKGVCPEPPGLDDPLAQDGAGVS

Usually EC50 stands for the concentration needed to bring the measured effect to its halfway point. Read a high EC50 as lower potency in that assay. Turning to `N#Cc1c(N)nc(SCc2csc(-c3ccc(Cl)cc3)n2)c(C#N)c1-c1cscn1` [Example 1, 2-Amino-6-([2-(4-chlorophenyl)-1,3-thiazol-4-yl]methylsulfanyl)-4-(1,3-thiazol-4-yl)pyridine-3,5-dicarbonitrile], the half-maximal effective concentration (EC50) at adenosine A2b receptor was 1570 nM; on adenosine A2a receptor it was 3000 nM; at adenosine A1 receptor, 0.5 nM.
Consider `N#Cc1c(N)nc(SCc2coc(-c3ccc(Cl)cc3)n2)c(C#N)c1-c1cncs1` [Example 4, 2-Amino-6-([2-(4-chlorophenyl)-1,3-oxazol-4-yl]methylsulfanyl)-4-(1,3-thiazol-5-yl)pyridine-3,5-dicarbonitrile], for which the EC50 on adenosine A2b receptor amounted to 3000 nM; at adenosine A2a receptor, 3000 nM; on adenosine A1 receptor, 0.9 nM.
Take `N#Cc1c(N)nc(SCc2csc(-c3ccc(Cl)cc3)n2)c(C#N)c1-c1cnc[nH]1` [Example 8]: the EC50 amounted to 715 nM on adenosine A2b receptor, 275 nM on adenosine A2a receptor and 1.2 nM at adenosine A1 receptor.
Consider `N#Cc1c(N)nc(SCc2coc(-c3ccc(Cl)cc3)n2)c(C#N)c1-c1cn[nH]c1` [Example 12], for which the results for the half-maximal effective concentration (EC50) on adenosine A2b receptor, on adenosine A2a receptor and on adenosine A1 receptor were 3000 nM, 3000 nM and 2.4 nM, respectively.
As for `N#Cc1c(SCc2csc(-c3ccc(Cl)cc3)n2)nc(N2CC(O)C2)c(C#N)c1-c1cncs1` [Example 16, 2-([2-(4-Chlorophenyl)-1,3-thiazol-4-yl]methylsulfanyl)-6-(3-hydroxyazetidin-1-yl)-4-(1,3-thiazol-5-yl)pyridine-3,5-dicarbonitrile], the EC50 at adenosine A2b receptor was determined as 3000 nM; on adenosine A2a receptor, 3000 nM; on adenosine A1 receptor it was 0.4 nM.
Regarding `N#Cc1c(SCc2coc(-c3ccc(Cl)cc3)n2)nc(N2CC(O)C2)c(C#N)c1-c1nccs1` [Example 20], the EC50 at adenosine A2b receptor worked out at 1800 nM; on adenosine A2a receptor it was 3000 nM; at adenosine A1 receptor, 0.5 nM.
As to `N#Cc1c(NC[C@H](O)CO)nc(SCc2csc(-c3ccc(Cl)cc3)n2)c(C#N)c1-c1nccs1` [Example 21], the concentration giving a half-maximal response (EC50) on adenosine A2b receptor came to 3000 nM; on adenosine A2a receptor it was 378 nM; at adenosine A1 receptor, 0.5 nM.
For the compound `N#Cc1c(SCc2csc(-c3ccc(Cl)cc3)n2)nc(N2CC(O)C2)c(C#N)c1-c1nccs1` [Example 22], the EC50 came to 1280 nM at adenosine A2b receptor, 2470 nM at adenosine A2a receptor and 0.6 nM on adenosine A1 receptor.
On the same counts, the results for `N#Cc1c(SCc2csc(-c3ccc(Cl)cc3)n2)nc(N2CC(O)C2)c(C#N)c1-c1cc[nH]n1` [Example 27] are 6500 nM, 6500 nM and 1.1 nM.
The like results for `CC(O)Cn1ccc(-c2c(C#N)c(N)nc(SCc3csc(-c4ccc(Cl)cc4)n3)c2C#N)n1` (stereo not drawn) [Example 30, 2-Amino-6-([2-(4-chlorophenyl)-1,3-thiazol-4-yl]methylsulfanyl)-4-[1-(2-hydroxypropyl)-1H-pyrazol-3-yl]pyridine-3,5-dicarbonitrile] were, in that order, 1410 nM, 2000 nM and 1.9 nM.
For `N#Cc1c(N)nc(SCc2csc(-c3ccc(Cl)cc3)n2)c(C#N)c1-c1cccs1` [Example 32, 2-Amino-6-({[2-(4-chlorophenyl)-1,3-thiazol-4-yl]methyl}sulfanyl)-4-thiophen-2-ylpyridine-3,5-dicarbonitrile], the EC50 worked out at 34 nM on adenosine A2b receptor, 184 nM at adenosine A2a receptor and 0.3 nM on adenosine A1 receptor.
Take `N#Cc1c(N)nc(SCc2cccc(C(N)=O)c2)c(C#N)c1-c1cccs1` [Example 37, 3-({[6-Amino-3,5-dicyano-4-(2-thienyl)pyridin-2-yl]thio}methyl)benzamide]: the EC50 was 28 nM at adenosine A2b receptor, 88 nM on adenosine A2a receptor and 0.05 nM at adenosine A1 receptor.
Regarding `N#Cc1c(SCc2csc(-c3ccc(Cl)cc3)n2)nc(N2CC[C@@H](O)C2)c(C#N)c1-c1cncs1` [Example 47, 2-({[2-(4-Chlorophenyl)-1,3-thiazol-4-yl]methyl}sulfanyl)-6-[(3R)-3-hydroxypyrrolidin-1-yl]-4-(1,3-thiazol-5-yl)pyridine-3,5-dicarbonitrile], the half-maximal effective concentration (EC50) on adenosine A2b receptor is 3000 nM; at adenosine A2a receptor it was 3000 nM; on adenosine A1 receptor, 0.5 nM.
